Literature values in patent US20250345461A1, “METHOD FOR REPAIRING HAIR CYCLE-RELATED GENES AND METHOD FOR TREATING HAIR CYCLE-RELATED DISEASES USING MIR-520D-5P” (LIVIUS PTE. LTD., priority 2021, published 2025).
Structures can show the parent of a compound that is named as a salt. Where two headings read alike, the source gives them in different places. One block for each molecule: values may come before it.

Molecule: CCCCC(CC)CNC(=N)NC(=N)NCCCCCCNC(=N)NC(=N)NCC(CC)CCCC (stereo not drawn) [Alexidine]
- Inhibition of cancer growth (concentration in known indications) (Inhibition of cancer growth): Inhibition of cancer growth: 1 mM

- Maximum effective blood concentration at the time of administration or concentration in an external preparation in known indications (Essential hypertension, parenchymal renal hypertension, angina, glaucoma, ocular hypertension): Administration: 41.8 ng/mL
Molecule: CC(C)NCC(O)COc1ccc(CCOCC2CC2)cc1 (stereo not drawn) [Betaxolol]

Molecule: CC(C)NCC(O)COc1ccc(COCCOC(C)C)cc1 (stereo not drawn) [Bisoprolol, Bisoprolol fumarate]
- Maximum effective blood concentration at the time of administration or concentration in an external preparation in known indications (Chronic heart failure due to essential hypertension, angina, ischemic heart disease, and dilated cardiomyopathy): Administration: 100 ng/mL

- Maximum effective blood concentration at the time of administration or concentration in an external preparation in known indications (Hypertension): Administration: 75 ng/mL
Molecule: CCOc1nc2cccc(C(=O)O)c2n1Cc1ccc(-c2ccccc2-c2nnn[nH]2)cc1 [Candesartan]

- Maximum effective blood concentration at the time of administration or concentration in an external preparation in known indications (Type 2 diabetes): Administration: 30 μg/mL
Molecule: CCCNC(=O)NS(=O)(=O)c1ccc(Cl)cc1 [Chlorpropamide]

- Maximum effective blood concentration at the time of administration or concentration in an external preparation in known indications (Edematous diseases): Administration: 100 μM
Molecule: C=C(CC)C(=O)c1ccc(OCC(=O)O)c(Cl)c1Cl [Ethacrynic acid]

Molecule: C=CCOc1ccccc1OCC(O)CNC(C)C (stereo not drawn) [Oxprenolol]
- Maximum effective blood concentration at the time of administration or concentration in an external preparation in known indications (Tachyarrhythmia, angina): Administration: 30.18 μg/μL

Molecule: CN[C@H](CC(C)C)C(=O)N[C@H]1C(=O)N[C@@H](CC(N)=O)C(=O)N[C@H]2C(=O)N[C@H]3C(=O)N[C@H](C(=O)N[C@H](C(=O)O)c4cc(O)cc(O)c4-c4cc3ccc4O)[C@H](O)c3ccc(c(Cl)c3)Oc3cc2cc(c3O[C@@H]2O[C@H](CO)[C@@H](O)[C@H](O)[C@H]2O[C@H]2C[C@](C)(N)[C@H](O)[C@H](C)O2)Oc2ccc(cc2Cl)[C@H]1O [Vancomycin]
- Maximum effective blood concentration at the time of administration or concentration in an external preparation in known indications (MRSA infection): Administration: 30 μg/mL

Molecule: Colistin
- Maximum effective blood concentration at the time of administration or concentration in an external preparation in known indications (Escherichia coli, Shigella, multidrug-resistant Pseudomonas aeruginosa, infectious enteritis): Administration: 4.4 μg/mL
